From PubChem BioAssay (NCI)
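Step 1: Grow cells in 96-well plates. Step 2: Expose to compound for 48 hours at 5 concentrations. Step 3: Interpolate endpoints linearly; if unreached, use highest concentration. Here, GI50 denotes the concentration required for 50% inhibition of growth. TGI marks complete inhibition of growth.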

Experiments:
Assay in all cases: DTP human tumour cell line panel, 48 h
HCT-15 colon = tested on: HCT-15 colon
IGROV1 ovarian = tested on: IGROV1 ovarian
KM12 colon = tested on: KM12 colon
M14 melanoma = tested on: M14 melanoma
OVCAR-4 ovarian = tested on: OVCAR-4 ovarian
OVCAR-8 ovarian = tested on: OVCAR-8 ovarian
PC-3 prostate = tested on: PC-3 prostate
SF-295 CNS = tested on: SF-295 CNS
SF-539 CNS = tested on: SF-539 CNS
SR leukemia = tested on: SR leukemia

Compound | GI50 (HCT-15 colon) | TGI (HCT-15 colon) | GI50 (IGROV1 ovarian) | TGI (IGROV1 ovarian) | GI50 (KM12 colon) | TGI (KM12 colon) | GI50 (M14 melanoma) | TGI (M14 melanoma) | GI50 (OVCAR-4 ovarian) | TGI (OVCAR-4 ovarian) | GI50 (OVCAR-8 ovarian) | TGI (OVCAR-8 ovarian) | GI50 (PC-3 prostate) | TGI (PC-3 prostate) | GI50 (SF-295 CNS) | TGI (SF-295 CNS) | GI50 (SF-539 CNS) | TGI (SF-539 CNS) | GI50 (SR leukemia) | TGI (SR leukemia)
O=C(/C=C/c1ccco1)Nc1ncc(Cc2cc(Cl)ccc2Cl)s1 | 46.3 nM | > 100000 nM | 80.7 nM | > 100000 nM | 41.9 nM | > 100000 nM | 37.3 nM | > 100000 nM | 1030 nM | > 100000 nM | 120 nM | > 100000 nM | 42.1 nM | > 100000 nM | 45 nM | > 100000 nM | 37.3 nM | 191 nM | 38.5 nM | > 100000 nM
COC(=O)[C@]12CC[C@@H](C)[C@H](C)[C@@H]1C1=CC[C@@H]3[C@@]4(C)C[C@@H](OC(C)=O)[C@H](OC(C)=O)[C@@](C)(COC(C)=O)[C@@H]4[C@H](O)C[C@@]3(C)[C@]1(C)CC2 | 430 nM | > 100000 nM | 2170 nM | > 100000 nM | 1030 nM | > 100000 nM | 1280 nM | > 100000 nM | 3210 nM | > 100000 nM | 3150 nM | > 100000 nM | 535 nM | > 100000 nM | 2840 nM | > 100000 nM | 3920 nM | > 100000 nM | 465 nM | 9400 nM
CC1CCc2c(C(=O)Nc3ncc(Cc4cccc([N+](=O)[O-])c4)s3)csc2C1 (stereo not given) | 389 nM | > 100000 nM | 753 nM | > 100000 nM | 442 nM | > 100000 nM | 400 nM | > 100000 nM | 1640 nM | > 100000 nM | 1420 nM | > 100000 nM | 618 nM | > 100000 nM | 400 nM | > 100000 nM | 548 nM | 1930 nM | 176 nM | > 100000 nM
N#Cc1ccc2c(-c3ccnc(NC4CC4)n3)c(-c3ccc(F)cc3)nn2c1 | > 25000 nM | > 25000 nM | > 25000 nM | > 25000 nM | > 25000 nM | > 25000 nM | > 25000 nM | > 25000 nM | > 25000 nM | > 25000 nM | > 25000 nM | > 25000 nM | > 25000 nM | > 25000 nM | > 25000 nM | > 25000 nM | > 25000 nM | > 25000 nM | > 25000 nM | > 25000 nM
COc1cc(/C=N/NC(=O)c2cnn3c2NC(c2ccccc2)C3)ccc1OCc1ccccc1 (stereo not given) | 461 nM | 6680 nM | 992 nM | 7260 nM | 412 nM | 2350 nM | 695 nM | 4450 nM | 1200 nM | 3080 nM | 2150 nM | 9540 nM | 967 nM | 3230 nM | 453 nM | 2110 nM | 524 nM | 2290 nM | 214 nM | 5050 nM
COc1oc(C2C/C(=C/C(C)=C/C(C)=C/C(C)=C/c3ccc([N+](=O)[O-])cc3)CO2)c(C)c(=O)c1C (stereo not given) |  | > 56600 nM |  | 42500 nM |  | > 48200 nM |  | > 100000 nM |  | > 42200 nM |  | 32500 nM |  | 18400 nM |  | 34700 nM |  | 33400 nM |  | 3000 nM
CC[C@H](C)[C@H](NC(=O)CN(C)C)C(=O)N(C)[C@H](C[C@@H](OC(C)=O)c1nc(C(=O)NC23C4C5C2C2C3C4C52C(=O)OC)cs1)C(C)C (stereo not given in full) | 1040 nM | > 33200 nM | 428 nM | > 33200 nM | 740 nM | > 33200 nM | 172 nM | > 33200 nM | 2810 nM | > 33200 nM | 507 nM | > 33200 nM | 768 nM | > 33200 nM | 552 nM | > 33200 nM | 462 nM | > 14100 nM | 38 nM | > 33200 nM
CCCCCn1sc(=O)n(Cc2ccc(CNC(=O)C(C)c3ccc(CC(C)C)cc3)cc2)c1=O (stereo not given) | 424 nM | 1620 nM | 645 nM | 2000 nM | 1590 nM | 3300 nM | 631 nM | 1920 nM | 999 nM | 2420 nM | 1090 nM | 2730 nM | 876 nM | 2470 nM | 1740 nM | 3920 nM | 1190 nM | 2440 nM | 452 nM | 5770 nM
COc1cc(/C=N\Nc2ccccc2)ccc1OC(=O)c1ccccc1 | 306 nM | 17600 nM | 2760 nM | > 100000 nM | 778 nM | > 68800 nM | 677 nM | 15800 nM | 8210 nM | > 100000 nM | 3460 nM | > 100000 nM | 921 nM | 22700 nM | 1920 nM | 10700 nM | 486 nM | 2220 nM | 16500 nM | > 100000 nM
